Results on one compound are retold here after patent publication US11458180B2, “Environmentally-friendly preparation method of composition containing anti-inflammatory active ingredients and use of composition” (SHANGHAI JAKA BIOTECH CO., LTD., priority 2019, dated 2022).

In this assay the test system is PGE-2. Nature of the assay: Anti-inflammatory effect: LPS-induced PGE-2 expression by ELISA. Format: cell-based, mouse. To be noted: LPS 1 μg/ml stimulated Raw 264.7 cells, 10 μM, relative to LPS group. How it is done: In this experiment, Raw 264.7 cells were stimulated by LPS, then cell culture was collected, and the expression of the inflammatory factor PGE-2 was determined by enzyme-linked immunosorbent assay (ELISA). The compositions obtained in the examples and comparative examples were compared in terms of the influence on anti-inflammatory effects. Raw264.7 cells and LPS were used for the experiment.
Raw264.7 cells at logarithmic growth phase were collected as follows: culture medium was discarded, and the cells were washed twice with PBS, added with 0.25% trypsin, and placed at 37° C. for 5 min; digestion was terminated with DMEM complete culture medium including 10% FBS and 1% PS, and a resulting solution was centrifuged at 1,000 rpm for 3 min; and a resulting supernatant was discarded, and obtained cells were resuspended in complete culture medium and counted. A cell concentration was adjusted to 5×10^5 cells/ml, and a resulting cell suspension was added to a 96-well plate at 100 µl/well. […]
After the treatment, cell culture was collected to a new 96-well plate, and the expression of PGE-2 was determined by ELISA according to instructions of a kit. A PGE-2 content (E) was calculated according to a standard curve, and relative to the LPS group, a relative inhibition rate was calculated for each sample (inhibition rate (%)=(1-Etest substance group/ELPS group)×100).

Consider `C[C@@H]1C[C@H]2[C@@H]3CCC4=CC(=O)C=C[C@]4(C)[C@@]3(F)[C@@H](O)C[C@]2(C)[C@@]1(O)C(=O)CO` [Dex, dexamethasone], for which the “inhibition rate of PGE-2 expression” value worked out at 75.27%.
